Data on one compound can be found in publication PMC6934184, “Selective DNA-PKcs inhibition extends the therapeutic index of localized radiotherapy and chemotherapy” (The Journal of Clinical Investigation, 2019).

The target of the experiment is T1, PAK2 (PAK65) (Homo sapiens, UniProt Q13177).
T1 construct: purchased Thermo Fisher Scientific (Life Technologies) SelectScreen
The experiment is described as follows: SelectScreen Z'LYTE. It counts as biochemical. Summed up: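 Percent values come from Thermo SelectScreen profiling of NU5455, combining activity and binding assays. CSF1R was run in Z'LYTE format at Km app ATP, and CAMK1 in Adapta format with ATP listed at 10.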

What is called inhibition is the share of the control response that was lost under treatment. A low value points to a response near the control.

T1 sequence (Q13177 whole entry): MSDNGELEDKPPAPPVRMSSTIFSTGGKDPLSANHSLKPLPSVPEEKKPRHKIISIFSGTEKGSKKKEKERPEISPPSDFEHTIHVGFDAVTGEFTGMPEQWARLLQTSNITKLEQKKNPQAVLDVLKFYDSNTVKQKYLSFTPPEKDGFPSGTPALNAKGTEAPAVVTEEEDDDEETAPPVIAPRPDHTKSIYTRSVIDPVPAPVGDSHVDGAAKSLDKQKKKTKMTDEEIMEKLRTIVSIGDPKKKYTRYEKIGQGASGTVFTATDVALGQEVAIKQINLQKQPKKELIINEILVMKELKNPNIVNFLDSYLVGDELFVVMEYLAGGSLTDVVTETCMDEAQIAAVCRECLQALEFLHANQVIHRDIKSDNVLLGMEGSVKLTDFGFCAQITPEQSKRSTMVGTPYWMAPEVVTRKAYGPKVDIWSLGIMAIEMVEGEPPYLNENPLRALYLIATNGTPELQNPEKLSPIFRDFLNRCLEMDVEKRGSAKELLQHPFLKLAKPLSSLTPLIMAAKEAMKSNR

In the case of `CN(C(=O)CN1CCOCC1)c1ccc2sc3c(-c4cccc5c(=O)cc(N6CC7CCC(C6)O7)oc45)cccc3c2c1` [NU5455], the inhibition at 1 µM is 4%.
